Measurements: patent US11266668B2, “Dietary supplement for glycemia control and diabetes prevention” (WORLD PHARMACEUTICAL TECHNOLOGY, LLC., priority 2018, dated 2022)
Marks after values point to notes of the source that are not given here.

How the values were obtained:
[1] = clinical phase I dose-escalation trial; cited from earlier work
Sprague-Dawley (SD) rats = test: sucrose loading test (postprandial blood glucose after sucrose gavage); format: in vivo, rat; conditions: male SD rats, sucrose 2.0 g/kg gavage, 5 mg/kg
Description: The inhibitory effect of Example Formula 1 and Example Formula 2 (see Table 1 and Table 2) on postprandial hyperglycemia after carbohydrate loading in Sprague-Dawley (SD) rats was assessed. All animal studies were performed according to the Act on Welfare and Management of Animals law—Act No. 105 of Oct. 1, 1973. Six week-old male SD rats were utilized and fed a solid diet for one week. Rats were housed five per cage in a room with a 12:12 hour light:dark cycle and an ambient temperature of 22-25° C. After 4 groups (n=5) were fasted for one day, 2.0 g/kg of sucrose were gavaged concurrently with Example Formula 1 (200 and 400 mg/kg) (e.g., provided at 200 or 400 mg total weight of Example Formula 1 per 1 Kg of the testing subject or patient) or 5 mg/kg Acarbose. The blood samples were collected from the tail after treatment and blood glucose concentrations were determined at 0, 0.5, 1, and 2 hours by utilizing glucose oxidase method. FIG. 1 and FIG. 2 show the effect of different dosage of Example Formula 1 or Example Formula 2 on sucrose loading test. After fasting for one day, 7-week-old, male SD rats were gavaged with sucrose solution (2.0 g/kg) with or without (the Control sample) Example Formula 1 or Example Formula 2. Acarbose was utilized as a positive control. Each point in the drawing represents mean±SD. (n=5). *p<0.05, **p<0.01 versus their corresponding controls at the same time points by unpaired Student's t-test. After fasting for one day, 7-week-old, male SD rats were gavaged with sucrose solution (2.0 g/kg) with or without the Comparative Example Formula 1. Acarbose was used as a positive control. Each point represents mean±SD. (n=5). *p<0.05, **p<0.01 versus their corresponding controls at the same time points by unpaired Student's t-test. Table 4 below lists the blood glucose level of rats under different dosage of Example Formula 1 and Comparative Example Formula 1 on sucrose loading test (unit: mM). The procedure is as described above. After fasting for one day, 7-week-old, male SD rats were gavaged with sucrose solution (2.0 g/kg) with or without Example Formula 1 or Comparative Example Formula 1. Acarbose was used as a positive control. Each point represents mean±SD. (n=5). *p<0.05, **p<0.01 versus their corresponding controls at the same time points by unpaired Student's t-test.

Row | Structure (SMILES) | clinically tolerable dose [1] | blood glucose level (Sprague-Dawley (SD) rats; time 0 hour) | blood glucose level (Sprague-Dawley (SD) rats; time 0.5 hour) | blood glucose level (Sprague-Dawley (SD) rats; time 1 hour) | blood glucose level (Sprague-Dawley (SD) rats; time 2 hour)
1 | O=CC[C@@H](O)[C@H](O)[C@H](O)CO [2-deoxy-D-glucose] | 63 mg/kg | – | – | – | –
2 | C[C@H]1O[C@H](O[C@H]2[C@H](O)[C@@H](O)[C@@H](O[C@H]3[C@H](O)[C@@H](O)C(O)O[C@@H]3CO)O[C@@H]2CO)[C@H](O)[C@@H](O)[C@@H]1N[C@H]1C=C(CO)[C@@H](O)[C@H](O)[C@H]1O (some centres unmarked) [Acarbose] | – | 5.4 ± 0.2 mM | 6.5 ± 0.3** mM | 6.9 ± 0.4** mM | 6.5 ± 0.4 mM
